From PubChem BioAssay AID1850 (Southern Research Specialized Biocontainment Screening …, 2009) come the findings set out here.

What is called IC50 is the point on the concentration scale where inhibition reaches its midpoint.

The assay relates to Salmonella Typhi PhoP-promoter GFP reporter, fluorescence, 4 h. Put plainly: PhoP regulon inhibitors, Salmonella typhi PhoP promoter GFP reporter, confirmatory (AID 1850).
On to `Fc1ccccc1CSc1ccc(-c2ccco2)nn1`, for which the concentration for half-maximal inhibition (IC50) was 133 µM.

On to `Cc1ncc(CC(=O)n2cc(C(=O)c3cc(Cl)ccc3O)cn2)s1`, for which the IC50 was 83 µM.

Turning to `O=C(CN1CC[n+]2c(-c3cccs3)csc21)c1ccc(-c2ccccc2)cc1`, the IC50 is 26.4 µM.

As for `Nc1nonc1C(=O)N/N=C/c1cc(Br)ccc1O`, the IC50 is 10.5 µM.

In the case of `NC1=NC[C@@H](Cc2ccc(O)cc2)N1CCCCC1CCCCC1`, the IC50 is 13.7 µM.

In the case of `O=c1[nH]cc(F)c(=O)[nH]1`, the IC50 was 2.99 µM.

On to `Cc1ccc(N/C(=C\C(=O)c2ccccc2)C(=O)O)cc1`, for which the IC50 is 30.9 µM.

For `Fc1ccc(CCNCc2ccc(Cl)c(Cl)c2)cc1`, the IC50 is 36.9 µM.

With `CO[C@H]1C=CO[C@@]2(C)Oc3c(C)c(O)c4c(O)c(c(C=NN5CCN(C)CC5)c(O)c4c3C2=O)NC(=O)C(C)=CC=C[C@H](C)[C@H](O)[C@@H](C)[C@@H](O)[C@@H](C)[C@H](OC(C)=O)[C@@H]1C`, the IC50 was 21.1 µM.

`C#CCOCCOCCOCCNc1nc(N2CCN(C(=O)CCCCCCCCCCNC(=O)Cn3cc(C[C@@H](C)O)nn3)CC2)nc(N2CCN(C(=O)CCCCCCCCCCNC(=O)[C@@H]([C@H](C)CC)n3cc(CCCCCN)nn3)CC2)n1`: the IC50 was 142 µM.

On to `Cc1cccc2sc(N(CCCN(C)C)C(=O)COc3ccc(Cl)cc3)nc12`, for which the IC50 is 38.6 µM.

As for `CN1C(=O)NC(c2ccc(O)cc2)C(C(=O)c2cccs2)C1(O)C(F)(F)F` (configuration not stated), the IC50 is 38.1 µM.

With `CN(C)CC/C=C1/c2cc(F)ccc2Sc2ccc(Cl)cc21`, the IC50 was 65.9 µM.

On to `Cc1cc(N2CCC(C)CC2)nc(NCc2ccccc2)n1`, for which the IC50 is 40.2 µM.

For the molecule `CN(C)CCCN(C(=O)COc1ccccc1)c1nc2ccc(Cl)cc2s1`, the IC50 is 77.8 µM.

`O=C(CC(=O)c1cc(Cl)ccc1O)c1ccccc1`: the IC50 is 19.8 µM.

For the molecule `Cc1ccc(C[n+]2c(-c3ccc(C)cc3)cc(-c3ccc(C)cc3)cc2-c2ccc(C)cc2)cc1`, the IC50 was 20.1 µM.

For `Cc1ccc(C(=O)NNC(=S)NC(=O)c2ccccc2)cc1`, the IC50 is 62.6 µM.

Consider `O=[N+]([O-])c1cc(Cl)c2cccnc2c1O`, for which the IC50 is 3.05 µM.

Turning to `Cc1ccc(C(C[N+](=O)[O-])c2c(N)n(C)c(=O)n(C)c2=O)cc1` (configuration not stated), the half-inhibitory concentration (IC50) was 145 µM.

Turning to `CN(C)CCCN(C(=O)CCc1ccccc1)c1nc2ccc(Br)cc2s1`, the IC50 was 69 µM.

For the molecule `O=C(Nc1nc(-c2ccccn2)cs1)c1ccc(Cl)s1`, the IC50 is 33.2 µM.

For the molecule `Nc1nc(N)c(Cc2ccc(Cl)cc2Cl)c(N)n1`, the IC50 was 94.9 µM.

With `C[n+]1c2n(c3ccccc31)N=C(c1ccc(-c3ccccc3)cc1)CS2`, the IC50 is 24.8 µM.

As to `c1ccc(CNc2nc(N3CCN(Cc4ccccc4)CC3)nc3ccccc23)cc1`, the IC50 was 18.2 µM.

On to `CNCCC=C1c2ccccc2CCc2ccccc21`, for which the IC50 was 139 µM.

Take `CN(C)CCN(C(=O)C1=COCCO1)c1nc2ccc(Cl)cc2s1`: the IC50 is 135 µM.

On to `O=C(Nc1ccc(Cc2ccncc2)cc1)c1ccc([N+](=O)[O-])o1`, for which the IC50 was 80.3 µM.

With `N=c1n(CCN2CCCCC2)c2ccccc2n1CC(O)c1ccc(Cl)c(Cl)c1` (configuration not stated), the IC50 was 37.1 µM.

Turning to `Cc1ccc2nc(N(CCCN(C)C)C(=O)c3ccc4c(c3)CCCC4)sc2c1`, the IC50 was 40.7 µM.

With `COc1cc(Br)cc(/C=N/c2ncn[nH]2)c1O`, the IC50 is 98.4 µM.

Regarding `CO[C@@]1(NC(=O)Cc2cccs2)C(=O)N2C(C(=O)O)=C(COC(N)=O)CS[C@@H]21`, the IC50 was 9.3 µM.

On to `Nc1nonc1-n1nnc(C(=O)N/N=C/c2cc(Br)ccc2O)c1CSC1=NCCS1`, for which the IC50 was 105 µM.

On to `CCn1cc(C(=O)O)c(=O)c2cc(F)c(N3CCN(C(=S)NC(=O)c4cc(OC)cc(OC)c4)CC3)cc21`, for which the IC50 was 45.8 µM.

In the case of `CCn1cc(C(=O)NCCO)c(=O)c2cc(F)c(N3CCN(C)CC3)cc21`, the IC50 is 9.31 µM.

As for `CN(C)CC/C=C1\c2ccccc2Sc2cc(F)c(Cl)cc21`, the IC50 is 26.5 µM.

As for `Cc1ccc(C(=O)N/N=C\c2ccc([N+](=O)[O-])s2)cn1`, the IC50 was 18.6 µM.
